Series [1] concerns Human Embryonic Kidney 293T (HEK 293T) cell line. In words: MTT cytotoxicity, HEK 293T. The class given is cell-based. Conditions: 72 h exposure, mean ± SD. From the text: Human ovarian carcinoma (A2780 and A2780cisR) cell lines were obtained from the European Collection of Cell Cultures. The Human Embryonic Kidney 293T (HEK 293T) cell line was obtained from the ATCC (Sigma, Buchs, Switzerland). Penicillin–streptomycin, RPMI 1640 GlutaMAX (where RPMI = Roswell Park Memorial Institute), and DMEM GlutaMAX media (where DMEM = Dulbecco’s modified Eagle medium) were obtained from Life Technologies, and fetal bovine serum (FBS) was obtained from Sigma. The cells were cultured in RPMI 1640 GlutaMAX (A2780 and A2780cisR) and DMEM GlutaMAX (HEK 293T) media containing 10% heat-inactivated FBS and 1% penicillin–streptomycin at 37 °C and CO2 (5%). The A2780cisR cell line was routinely treated with cisplatin (2 μM) in the media to maintain cisplatin resistance. The cytotoxicity was determined using the 3-(4,5-dimethyl-2-thiazolyl)-2,5-diphenyl-2H-tetrazolium bromide (MTT) assay.[42] Cells were seeded in flat-bottomed 96-well plates as a suspension in a prepared medium (100 μL aliquots and approximately 4300 cells/well) and preincubated for 24 h. Stock solutions of compounds were prepared in DMSO and were diluted in the medium. The solutions were sequentially diluted to give a final DMSO concentration of 0.5% and a final compound concentration range of 0–200 μM. Cisplatin was tested as a positive (0–100 μM) control. The compounds were placed in the preincubated 96-well plates in 100 μL aliquots, and the plates were incubated for a further 72 h. MTT (20 μL, 5 mg/mL in Dulbecco’s phosphate buffered saline) was placed in the cells, and the plates were incubated for a further 4 h. The culture medium was aspirated, and the purple formazan crystals, formed by the mitochondrial dehydrogenase activity of vital cells, were dissolved in DMSO (100 μL/well). The absorbance of the resulting solutions, directly proportional to the number of surviving cells, was quantified at 590 nm using a SpectroMax M5e multimode microplate reader (using SoftMax Pro software, version 6.2.2). The percentage of surviving cells was calculated from the absorbance of wells corresponding to the untreated control cells. The reported IC50 values are based on the means from two independent experiments, each comprising four tests per concentration level.

The nature of series [2]: Solubility in D2O by 1H NMR. Type of series: physicochemical. Conditions: Me2SO2 internal standard, T = 21 °C. The procedure: The solubility of the complexes in D2O was assessed using ^1H NMR spectroscopy (see Table 1 and the Experimental Section for details). […] Data from the literature for the related nonfunctionalized complexes [2′,3′]CF3SO3 are compiled in Table 1 for comparison.[11] The octanol–water partition coefficients (Log Pow) were measured using a UV–vis method and fall within the −0.2 to +1.2 range (Table 1). […] For instance, Log Pow values of 1.07 and 0.65 are obtained for the geometric isomers [9]CF3SO3 and [10]CF3SO3, respectively.

Series [3] in a line: Stability in D2O/DMSO at 37 °C by 1H NMR. Conditions: 24 h at 37 °C. Type of series: physicochemical. The procedure:
Conversely, [3–7]CF3SO3, containing either {Aryl–OCOAsp} or {Aryl-NHCOAsp} moieties, were stable under the same conditions. […] Complete conversion into the bis-hydroxide [8^2OH]^+ was achieved within 72 h. Similarly, [9,10]CF3SO3 undergo activation of the {C–Cl} bonds to give mixtures of the partially Cl/OH substituted species [9^OH]^+ and [10^OH]^+ and the fully substituted species [9^2OH]^+ and [10^2OH]^+.

Another series has as its system A2780 cells. Put plainly: Intracellular ROS production, DCFH-DA assay. The class given is cell-based, human. Conditions: for ROS production compared to H2O2 positive control: 10 μM compound vs H2O2 100 μM, 24 h; for intracellular ROS levels: 10 μM, up to 24 h, DCFH-DA fluorescence. The procedure: In order to shed light on the possible mechanism of action of the biofunctionalized diiron complexes, a series of complementary studies were performed. It was previously shown that the diiron vinyliminium structural motif induces ROS production, possibly associated with more than one mechanism: (1) monoelectron reduction of the complex favored by its net cationic charge; (2) fragmentation into a monoiron derivative and atomic iron; […] After overnight incubation, the cells were treated following the manufacturer’s protocol. […] Stock solutions of compounds were prepared as described above; cells incubated with equal amounts of DMSO in supplemented RPMI were used as a control. The fluorescence was measured up to 24 h with an excitation wavelength of 485 nm and with a 535 nm emission filter by Multilabel Counter (PerkinElmer, Waltham, MA, USA). The measurements were performed in triplicate, and results were reported as mean ± SD. Statistical differences were examined using one-way analysis of variance (ANOVA), and a Tukey test was used for post hoc analysis.

The nature of series [4]: Octanol–water partition coefficient (shake-flask, UV–vis). Type of series: physicochemical. Conditions: T = 21 °C. The method, then: The solubility of the complexes in D2O was assessed using ^1H NMR spectroscopy (see Table 1 and the Experimental Section for details). […] Data from the literature for the related nonfunctionalized complexes [2′,3′]CF3SO3 are compiled in Table 1 for comparison.[11] The octanol–water partition coefficients (Log Pow) were measured using a UV–vis method and fall within the −0.2 to +1.2 range (Table 1). […] For instance, Log Pow values of 1.07 and 0.65 are obtained for the geometric isomers [9]CF3SO3 and [10]CF3SO3, respectively. […]
Determination of partition coefficients (Log P ow)
Partition coefficients ( Pow; IUPAC: K D partition constant, 7,8 defined as Pow = corg/caq, where corg and caq are the molar concentrations of the selected compound in the organic and aqueous phases, respectively, were determined by the shake-flask method and UV-Vis measurements. 9 Values of Log Pow for diiron complexes are compiled in Table 2. All the operations were carried out at 21±1 °C. De -ionised water and 1-octanol were mixed and vigorously stirred for 24 hours at room temperature to allow saturation of both phases, then separated by centrifugation and used for the following experiments. A solution of the selected Fe compound in the organic phase (V = 5 mL) was prepared and its UV-Vis spectrum was recorded. An aliquot of the solution (Vorg = 1.5 mL) was then transferred into a test tube and the aqueous phase (Vorg = Vaq = 1.5 mL) was added. The mixture was vigorously stirred for 20 minutes and the resulting emulsion was centrifuged (5000 rpm, 10’). […]
the organic phase was recorded. The procedure was repeated three times for each compound. The partition coefficient was then calculated as PPow = AorgA0,org − Aorg, where A0,org and Aorg are the absorbance values in the organic phase, respectively before and after mixing with the aqueous phase. 9 UV-Vis measurements were carried out using 1 cm PMMA cuvettes. The wavelength of the maximum absorption of each compound was used for UV-Vis quantification.

Where “and” joins values, the source holds several entries; their conditions need not be identical. Equal entries are not always repeated. Marks after values point to notes of the source that are not given here.

“[Fe2Cp2(CO)(μ-CO){μ-η^1:η^3-Cγ(3-C6H4OC(=O)C6H4OC(=O)Me)CβHCαNMe(Xyl)}]CF3SO3 [[4]CF3SO3]” displayed an IC50 in series [1] of 3.8 ± 0.7 µM. For the same substance, in series [2], the solubility is <1 × 10^–4 mol L^–1. In series [3] (D2O/DMSO 2/1 v/v), the “stability (%), residual percent of complex” value is recorded as 59%. Further, in the series on A2780 cells, the “ROS production compared to H2O2 positive control” value is “ROS production higher than that recorded for H2O2” and the “intracellular ROS levels” value was “Significant intracellular ROS levels”. In series [4], the “Log Pow” value stood at 1.06 ± 0.04.
As for “[Fe2Cp2(CO)(μ-CO){μ-η^1:η^3-Cγ(3-C6H4NHC(=O)(CH2)3C6H4N(CH2CH2Cl)2)CβHCαNMe2}]CF3SO3 [[9]CF3SO3]”, half-maximal inhibition in series [1] (IC50) required 9 ± 3 µM. In series [2], the solubility is given as <1 × 10^–4 mol L^–1. The “stability (%), total percentage of diiron complexes with a chlorambucil-like group” value in series [3] (D2O/DMSO 1/1 v/v) is on record as 88 ^b %. Further, in the series on A2780 cells, the “ROS production compared to H2O2 positive control” value was “ROS production higher than that recorded for H2O2” and the “intracellular ROS levels” value was “Significant intracellular ROS levels”. The “Log Pow” value in series [4] was 1.07 and 1.07 ± 0.05.

In general, IC50 refers to the point on the concentration scale where inhibition reaches its midpoint.
